Test results as given in patent publication US12060347B2 (BRISTOL-MYERS SQUIBB COMPANY, priority 2016, dated 2024).

Target: T1, human PAR4 (Homo sapiens, UniProt Q96RI0)
T1 construct: expressed in transfected cells; host or cells: HEK293 PAR4 Clone 1.2A (BMS Arctic ID 383940)
T1 sequence (Q96RI0 18-385): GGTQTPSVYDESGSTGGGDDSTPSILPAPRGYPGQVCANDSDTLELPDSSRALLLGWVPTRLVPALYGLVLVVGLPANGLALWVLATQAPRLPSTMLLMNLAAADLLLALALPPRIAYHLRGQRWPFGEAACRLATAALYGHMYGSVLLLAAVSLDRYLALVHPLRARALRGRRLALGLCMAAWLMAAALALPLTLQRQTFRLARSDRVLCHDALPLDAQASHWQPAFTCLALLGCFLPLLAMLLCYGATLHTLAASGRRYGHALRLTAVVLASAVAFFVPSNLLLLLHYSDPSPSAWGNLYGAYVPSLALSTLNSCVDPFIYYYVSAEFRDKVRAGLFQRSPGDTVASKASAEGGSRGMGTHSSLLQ
Experiment: PAR4 FLIPR assay: antagonism of agonist-peptide-induced calcium mobilization in PAR4-expressing HEK293 cells
Assay type: cell-based
Conditions: H-Ala-Phe(4-F)-[…]NH2-induced intracellular calcium mobilization, 11-point curves

IC50 [nM]	SMILES
22	COc1cnc2c(-c3nc4cc(F)c(OC[C@@H](C)OC(=O)Nc5ccnnc5)cc4s3)cc(C)cc2n1 [Example 353, (R)-1-((5-fluoro-2-(2-methoxy-7-methylquinoxalin-5-yl)benzo[d]thiazol-6-yl)oxy)propan-2-yl pyridazin-4-ylcarbamate]
1.2	COc1cnc2c(-c3nc4cc(F)c(OC[C@@H](C)OC(=O)Nc5cnc6[nH]ccc6c5)cc4s3)cc(C)cc2n1 [Example 354, (R)-1-((5-fluoro-2-(2-methoxy-7-methylquinoxalin-5-yl)benzo[d]thiazol-6-yl)oxy)propan-2-yl 1H-pyrrolo[2,3-b]pyridin-5-ylcarbamate]
17	COc1cnc2c(-c3nc4cc(F)c(OC[C@@H](C)OC(=O)Nc5ccc6[nH]ccc6c5)cc4s3)cc(C)cc2n1 [Example 355, (R)-1-((5-fluoro-2-(2-methoxy-7-methylquinoxalin-5-yl)benzo[d]thiazol-6-yl)oxy)propan-2-yl 1H-indol-5-ylcarbamate]
2.1	COc1cnc2c(-c3nc4cc(F)c(OC[C@@H](C)OC(=O)Nc5ccc6c(ccn6C)c5)cc4s3)cc(C)cc2n1 [Example 356, (R)-1-((5-fluoro-2-(2-methoxy-7-methylquinoxalin-5-yl)benzo[d]thiazol-6-yl)oxy)propan-2-yl (1-methyl-1H-indol-5-yl)carbamate]
6.7	COc1cnc2c(-c3nc4cc(F)c(OC[C@@H](C)OC(=O)Nc5cnc(C)nc5)cc4s3)cc(C)cc2n1 [Example 357, (R)-1-((5-fluoro-2-(2-methoxy-7-methylquinoxalin-5-yl)benzo[d]thiazol-6-yl)oxy)propan-2-yl (2-methylpyrimidin-5-yl)carbamate]
270	COc1cnc2c(-c3nc4c(Cl)c(F)c(OCCOC(N)=O)cc4s3)cc(C)cc2n1 [Example 358, 2-((4-chloro-5-fluoro-2-(2-methoxy-7-methylquinoxalin-5-yl)benzo[d]thiazol-6-yl)oxy) ethyl carbamate]
170	COc1cnc2c(-c3nc4c(Cl)c(F)c(OCCOC(=O)Nc5cnc6[nH]ccc6c5)cc4s3)cc(C)cc2n1 [Example 359, 2-((4-chloro-5-fluoro-2-(2-methoxy-7-methylquinoxalin-5-yl)benzo[d]thiazol-6-yl)oxy)ethyl 1H-pyrrolo[2,3-b]pyridin-5-ylcarbamate]
160	COc1cnc2c(-c3nc4c(Cl)c(F)c(OCCOC(=O)Nc5ccc6[nH]ccc6c5)cc4s3)cc(C)cc2n1 [Example 360, 2-((4-chloro-5-fluoro-2-(2-methoxy-7-methylquinoxalin-5-yl)benzo[d]thiazol-6-yl)oxy)ethyl 1H-indol-5-ylcarbamate]
5.5	COC(=O)c1ccc(NC(=O)OCCOc2cc3sc(-c4cc(C)cc5nc(OC)cnc45)nc3c(Cl)c2F)cn1 [Example 361, methyl 5-(((2-((4-chloro-5-fluoro-2-(2-methoxy-7-methylquinoxalin-5-yl)benzo[d]thiazol-6-yl)oxy)ethoxy)carbonyl)amino)picolinate]
4.1	COc1cnc2c(-c3nc4c(Cl)c(F)c(OCCOC(=O)Nc5cnc(C)nc5)cc4s3)cc(C)cc2n1 [Example 362, 2-((4-chloro-5-fluoro-2-(2-methoxy-7-methylquinoxalin-5-yl)benzo[d]thiazol-6-yl)oxy)ethyl (2-methylpyrimidin-5-yl)carbamate]
1700	COc1cnc2c(-c3nc4c(Cl)c(F)c(OCCOC(=O)Nc5nsc(OC)n5)cc4s3)cc(C)cc2n1 [Example 363, 2-((4-chloro-5-fluoro-2-(2-methoxy-7-methylquinoxalin-5-yl)benzo[d]thiazol-6-yl)oxy)ethyl (5-methoxy-1,2,4-thiadiazol-3-yl)carbamate]
19	COc1cnc2c(-c3nc4c(Cl)c(F)c(OCCOC(=O)Nc5cn[nH]c5)cc4s3)cc(C)cc2n1 [Example 364, 2-((4-chloro-5-fluoro-2-(2-methoxy-7-methylquinoxalin-5-yl)benzo[d]thiazol-6-yl)oxy)ethyl 1H-pyrazol-4-ylcarbamate]
2.5	COc1cnc2c(-c3nc4c(Cl)c(F)c(OCCOC(=O)Nc5cnn(C)c5)cc4s3)cc(C)cc2n1 [Example 365, 2-((4-chloro-5-fluoro-2-(2-methoxy-7-methylquinoxalin-5-yl)benzo[d]thiazol-6-yl)oxy) ethyl (1-methyl-1H-pyrazol-4-yl)carbamate]
550	COc1cnc2c(-c3nc4c(Cl)c(F)c(OCCOC(=O)Nc5nnc(C)o5)cc4s3)cc(C)cc2n1 [Example 366, 2-((4-chloro-5-fluoro-2-(2-methoxy-7-methylquinoxalin-5-yl)benzo[d]thiazol-6-yl)oxy)ethyl (5-methyl-1,3,4-oxadiazol-2-yl) carbamate]
12	COc1cnc2c(-c3nc4c(Cl)c(F)c(OCCOC(=O)Nc5cnc6c(c5)cc(C)n6C)cc4s3)cc(C)cc2n1 [Example 367, 2-((4-chloro-5-fluoro-2-(2-methoxy-7-methylquinoxalin-5-yl)benzo[d]thiazol-6-yl)oxy)ethyl (1,2-dimethyl-1H-pyrrolo[2,3-b]pyridin-5-yl)carbamate]
13	COc1cnc2c(-c3nc4c(Cl)c(F)c(OCCOC(=O)NCc5ccncc5)cc4s3)cc(C)cc2n1 [Example 369, 2-((4-chloro-5-fluoro-2-(2-methoxy-7-methylquinoxalin-5-yl)benzo[d]thiazol-6-yl)oxy)ethyl (pyridin-4-ylmethyl)carbamate]
5.8	COc1cnc2c(-c3nc4c(Cl)c(F)c(OC[C@@H](C)OC(=O)Nc5nnc(C)s5)cc4s3)cc(C)cc2n1 [Example 370, (R)-1-((4-chloro-5-fluoro-2-(2-methoxy-7-methylquinoxalin-5-yl)benzo[d]thiazol-6-yl)oxy)propan-2-yl (5-methyl-1,3,4-thiadiazol-2-yl)carbamate]
1.8	COc1cnc2c(-c3nc4c(Cl)c(F)c(OC[C@@H](C)OC(=O)Nc5ccc(C#N)nc5)cc4s3)cc(C)cc2n1 [Example 371, (R)-1-((4-chloro-5-fluoro-2-(2-methoxy-7-methylquinoxalin-5-yl)benzo[d]thiazol-6-yl)oxy)propan-2-yl (6-cyanopyridin-3-yl)carbamate]
1.3	COc1cnc2c(-c3nc4c(Cl)c(F)c(OC[C@@H](C)OC(=O)Nc5cccnc5)cc4s3)cc(C)cc2n1 [Example 372, (R)-1-((4-chloro-5-fluoro-2-(2-methoxy-7-methylquinoxalin-5-yl)benzo[d]thiazol-6-yl)oxy)propan-2-yl pyridin-3-ylcarbamate]
0.9	COc1cnc2c(-c3nc4c(Cl)c(F)c(OC[C@@H](C)OC(=O)Nc5ccc6[nH]c(=O)oc6c5)cc4s3)cc(C)cc2n1 [Example 373, (R)-1-((4-chloro-5-fluoro-2-(2-methoxy-7-methylquinoxalin-5-yl)benzo[d]thiazol-6-yl)oxy)propan-2-yl (2-oxo-2,3-dihydrobenzo[d]oxazol-6-yl)carbamate]
110	COc1cnc2c(-c3nc4c(Cl)c(F)c(OC[C@@H](C)OC(=O)Nc5ccc(C(F)(F)F)nc5)cc4s3)cc(C)cc2n1 [Example 374, (R)-1-((4-chloro-5-fluoro-2-(2-methoxy-7-methylquinoxalin-5-yl)benzo[d]thiazol-6-yl)oxy)propan-2-yl (6-(trifluoromethyl)pyridin-3-yl)carbamate]
1.7	COc1cnc2c(-c3nc4c(Cl)c(F)c(OC[C@@H](C)OC(=O)Nc5cnc6c(c5)CC=N6)cc4s3)cc(C)cc2n1 [Example 375, (R)-1-((4-chloro-5-fluoro-2-(2-methoxy-7-methylquinoxalin-5-yl)benzo[d]thiazol-6-yl)oxy)propan-2-yl 3H-pyrrolo [2,3-b]pyridin-5-yl carbamate]
72	COc1cnc2c(-c3nc4c(Cl)c(F)c(OC[C@@H](C)OC(=O)Nc5cnccc5C)cc4s3)cc(C)cc2n1 [Example 376, (R)-1-((4-chloro-5-fluoro-2-(2-methoxy-7-methylquinoxalin-5-yl)benzo[d]thiazol-6-yl)oxy)propan-2-yl (4-methylpyridin-3-yl) carbamate]
4.3	COc1cnc2c(-c3nc4c(Cl)c(F)c(OC[C@@H](C)OC(=O)Nc5ccc(C)nc5)cc4s3)cc(C)cc2n1 [Example 377, (R)-1-((4-chloro-5-fluoro-2-(2-methoxy-7-methylquinoxalin-5-yl)benzo[d]thiazol-6-yl)oxy)propan-2-yl (6-methylpyridin-3-yl)carbamate]
8.7	COC(=O)c1cc(NC(=O)OCCOc2cc3sc(-c4cc(C)cc5nc(OC)cnc45)nc3c(Cl)c2F)cn1C [Example 378, methyl 4-(((2-((4-chloro-5-fluoro-2-(2-methoxy-7-methylquinoxalin-5-yl)benzo[d]thiazol-6-yl)oxy)ethoxy)carbonyl)amino)-1-methyl-1H-pyrrole-2-carboxylate]
2.3	COc1cnc2c(-c3nc4cc(F)c(OCC(COCc5ccccc5)OC(=O)Nc5cccnc5)cc4s3)cc(C)cc2n1 (stereo not drawn) [Example 380, 1-(benzyloxy)-3-((5-fluoro-2-(2-methoxy-7-methylquinoxalin-5-yl)benzo[d]thiazol-6-yl)oxy)propan-2-yl pyridin-3-ylcarbamate]

SMILES	IC50 [nM]
COc1cnc2c(-c3nc4cc(F)c(OCC(COCC(C)C)OC(=O)Nc5cccnc5)cc4s3)cc(C)cc2n1 (stereo not drawn) [Example 379, 1-((5-fluoro-2-(2-methoxy-7-methylquinoxalin-5-yl)benzo[d]thiazol-6-yl)oxy)-3-isobutoxypropan-2-yl pyridin-3-ylcarbamate]	1.7
